According to patent publication US10174013B2, “Benzimidazole derivatives as kinase inhibitors” (SELVITA S.A., priority 2012, dated 2019):
Read-outs that look alike come from different tables or passages of the source.

How the values were obtained:
Pim-1 = Pim-1 (Homo sapiens (Human), UniProt P11309); assay: ADP-Glo Kinase Assay, Pim-1; type: biochemical; details: 1 μM compound; for inhibition at 1 µM: read-out: Pim-1 % INH (1 μM)
Outline: (§1)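 ADP-Glo luminescent ADP detection of human kinase activity in 5 mM MOPS pH 7.5, 5 mM MgCl2, 0.4 mM EDTA, 1.5 mM DTT. ATP at each kinase's apparent Km; compounds diluted to 1000 nM in assay buffer. Percent inhibition from normalised luminescence.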

Pim-2 = Pim-2 (Homo sapiens (Human), UniProt Q9P1W9); assay: ADP-Glo Kinase Assay, Pim-2; type: biochemical; details: 1 μM compound; for inhibition at 1 µM: read-out: Pim-2 % INH (1 μM)
Pim-2, sequence (Q9P1W9 whole entry): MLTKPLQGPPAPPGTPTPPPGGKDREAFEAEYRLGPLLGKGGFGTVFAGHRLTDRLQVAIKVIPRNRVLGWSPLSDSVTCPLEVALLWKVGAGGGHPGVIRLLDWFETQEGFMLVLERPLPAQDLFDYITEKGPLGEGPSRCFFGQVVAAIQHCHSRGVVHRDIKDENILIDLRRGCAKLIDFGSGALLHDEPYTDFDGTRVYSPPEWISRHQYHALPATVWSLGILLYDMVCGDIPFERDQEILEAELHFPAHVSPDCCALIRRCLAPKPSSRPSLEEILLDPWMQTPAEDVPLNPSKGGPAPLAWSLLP
Outline: as §1

Pim-3 = Pim-3 (Homo sapiens (Human), UniProt Q86V86); assay: ADP-Glo Kinase Assay, Pim-3; type: biochemical; details: 1 μM compound; for inhibition at 1 µM: read-out: Pim-3 % INH (1 μM)
Outline: as §1

FLT3wt = FLT3wt (Homo sapiens (Human), UniProt P36888); assay: ADP-Glo Kinase Assay, Flt3 wt; type: biochemical; details: 1 μM compound; for inhibition at 1 µM: read-out: Flt3wt % INH (1 μM)
FLT3wt, sequence (P36888 27-993): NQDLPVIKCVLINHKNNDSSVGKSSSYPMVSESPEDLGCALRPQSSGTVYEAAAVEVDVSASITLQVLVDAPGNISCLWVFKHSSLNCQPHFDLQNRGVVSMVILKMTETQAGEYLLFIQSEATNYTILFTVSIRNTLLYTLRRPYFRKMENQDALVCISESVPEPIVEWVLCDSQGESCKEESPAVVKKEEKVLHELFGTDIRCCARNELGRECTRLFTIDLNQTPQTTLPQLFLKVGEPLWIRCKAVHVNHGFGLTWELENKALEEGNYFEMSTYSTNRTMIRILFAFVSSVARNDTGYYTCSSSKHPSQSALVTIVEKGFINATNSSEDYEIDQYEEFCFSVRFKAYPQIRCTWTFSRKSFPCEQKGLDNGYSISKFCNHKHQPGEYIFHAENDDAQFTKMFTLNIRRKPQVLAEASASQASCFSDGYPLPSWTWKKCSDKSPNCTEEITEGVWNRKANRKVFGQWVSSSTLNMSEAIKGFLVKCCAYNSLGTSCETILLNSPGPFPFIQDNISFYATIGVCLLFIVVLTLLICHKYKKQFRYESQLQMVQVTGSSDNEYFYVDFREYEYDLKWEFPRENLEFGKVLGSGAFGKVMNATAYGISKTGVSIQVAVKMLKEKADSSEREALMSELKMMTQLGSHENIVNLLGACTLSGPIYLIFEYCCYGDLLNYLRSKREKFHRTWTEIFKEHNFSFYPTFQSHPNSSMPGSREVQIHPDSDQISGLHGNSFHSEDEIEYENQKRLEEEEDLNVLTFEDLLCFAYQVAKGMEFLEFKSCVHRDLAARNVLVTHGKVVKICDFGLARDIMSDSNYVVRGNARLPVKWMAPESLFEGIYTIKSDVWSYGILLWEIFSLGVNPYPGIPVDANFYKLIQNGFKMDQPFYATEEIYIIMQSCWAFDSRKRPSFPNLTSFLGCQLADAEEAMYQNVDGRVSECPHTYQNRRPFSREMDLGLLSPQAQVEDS
Outline: as §1

CDK2/E = CDK2/E (Homo sapiens (Human), UniProt P24941); assay: ADP-Glo Kinase Assay, CDK2/E; type: biochemical; details: 1 μM compound; for inhibition at 1 µM: read-out: CDK2/E % INH (1 μM)
Outline: as §1

DYRK1 = DYRK1 (Homo sapiens (Human), UniProt Q13627); assay: ADP-Glo Kinase Assay, DYRK1; type: biochemical; details: 1 μM compound; for inhibition at 1 µM: read-out: DYRK1A % INH (1 μM)
Outline: as §1

MV4-11 cells = assay: Growth inhibition, MTS assay, MV4-11; type: cell-based, Human; details: MTS cell viability, read-out: MV4-11 ED50
HEL92 cells = assay: Growth inhibition, MTS assay, HEL92; type: cell-based, Human; details: MTS cell viability, read-out: HEL92 ED50
HepG2 cells = assay: Growth inhibition, MTS assay, HepG2; type: cell-based, Human; details: MTS cell viability, read-out: HepG2 ED50
Jeko-1 cells = assay: Growth inhibition, MTS assay, Jeko-1; type: cell-based, Human; details: 72 hours, MTS cell viability, read-out: Jeko-1 ED50
MOLM16 cells = assay: Growth inhibition, MTS assay, MOLM16; type: cell-based, Human; details: Homo sapiens, MOLM16, 72 h, MTS cell viability, read-out: MOLM 16 ED50
Description: (§2) The following cell lines, were obtained and used in tests as outlined below: • Human myelomonocytic, biphenotypic leukemia MV4-11 cells (harboring a Flt3-ITD mutation); • Human Acute Myeloid Leukemia MOLM16 cells; • Human Acute Myeloid Leukemia MOLM13 cells (harboring a Flt3-ITD mutation); • Human Myeloid Leukemia KG-1 cells; • Human erythroleukemia HEL92 cells; • Human mantle cell lymphoma Jeko-1 cells; • Human hepatocellular carcinoma HepG2 cells; and • Human colon adenocarcinoma SW-480 cells.
(§3) The assays were carried out according to the following protocol, which is described as an example for the MV4-11 cells:
(§4) Ten thousand MV4-11 cells were inoculated into each well of a 96-well microplate (manufactured by Corning Corp.) using Iscove's MDM medium (culture medium) containing 10% fetal calf serum (FCS). The same day, a dimethyl sulfoxide (DMSO) solution of each test compound prepared in a concentration of 10 mmol/L was further diluted with DMSO to the desired concentrations (0.1, 0.5, 1, 2.5, 5 and 10 micromol/L), and the diluted solution was added to each well. The individual wells were further cultured in 5% carbon dioxide at 37° C. for 72 hours. […] Briefly, 10 μl MTS (3-(4,5-Dimethyl-2-thiazolyl)-5-(carboxymethoxyphenyl)-2-(4-sulfophenyl)-2H-tetrazolium was added to each well, and culturing was performed in 5% carbon dioxide at 37° C. for 2 hours. After this incubation and using a microplate spectrophotometer (Synergy 2 multi-mode microplate reader (BioTek)), the absorbance of each well was measured at 490 nm. The value for cells not incubated with a test compound was designated as 100%. By comparing these values with the absorbance difference obtained at the well in which each test compound was added, the cell viability (% viability) after treatment with the test compound was calculated.

MOLM13 cells = assay: Growth inhibition, MTS assay, MOLM13; type: cell-based, Human; details: 72 hours, MTS cell viability, read-out: MOLM 13 ED50
Description: as §2, §3, §4

KG-1 cells = assay: Growth inhibition, MTS assay, KG-1; type: cell-based, Human; details: 72 hours, MTS cell viability
Description: as §2, §3, §4

hERG potassium channel = hERG potassium channel (Homo sapiens (Human), UniProt Q12809); assay: hERG automated patch clamp assay (QPatch HT)
hERG potassium channel, sequence (Q12809 whole entry): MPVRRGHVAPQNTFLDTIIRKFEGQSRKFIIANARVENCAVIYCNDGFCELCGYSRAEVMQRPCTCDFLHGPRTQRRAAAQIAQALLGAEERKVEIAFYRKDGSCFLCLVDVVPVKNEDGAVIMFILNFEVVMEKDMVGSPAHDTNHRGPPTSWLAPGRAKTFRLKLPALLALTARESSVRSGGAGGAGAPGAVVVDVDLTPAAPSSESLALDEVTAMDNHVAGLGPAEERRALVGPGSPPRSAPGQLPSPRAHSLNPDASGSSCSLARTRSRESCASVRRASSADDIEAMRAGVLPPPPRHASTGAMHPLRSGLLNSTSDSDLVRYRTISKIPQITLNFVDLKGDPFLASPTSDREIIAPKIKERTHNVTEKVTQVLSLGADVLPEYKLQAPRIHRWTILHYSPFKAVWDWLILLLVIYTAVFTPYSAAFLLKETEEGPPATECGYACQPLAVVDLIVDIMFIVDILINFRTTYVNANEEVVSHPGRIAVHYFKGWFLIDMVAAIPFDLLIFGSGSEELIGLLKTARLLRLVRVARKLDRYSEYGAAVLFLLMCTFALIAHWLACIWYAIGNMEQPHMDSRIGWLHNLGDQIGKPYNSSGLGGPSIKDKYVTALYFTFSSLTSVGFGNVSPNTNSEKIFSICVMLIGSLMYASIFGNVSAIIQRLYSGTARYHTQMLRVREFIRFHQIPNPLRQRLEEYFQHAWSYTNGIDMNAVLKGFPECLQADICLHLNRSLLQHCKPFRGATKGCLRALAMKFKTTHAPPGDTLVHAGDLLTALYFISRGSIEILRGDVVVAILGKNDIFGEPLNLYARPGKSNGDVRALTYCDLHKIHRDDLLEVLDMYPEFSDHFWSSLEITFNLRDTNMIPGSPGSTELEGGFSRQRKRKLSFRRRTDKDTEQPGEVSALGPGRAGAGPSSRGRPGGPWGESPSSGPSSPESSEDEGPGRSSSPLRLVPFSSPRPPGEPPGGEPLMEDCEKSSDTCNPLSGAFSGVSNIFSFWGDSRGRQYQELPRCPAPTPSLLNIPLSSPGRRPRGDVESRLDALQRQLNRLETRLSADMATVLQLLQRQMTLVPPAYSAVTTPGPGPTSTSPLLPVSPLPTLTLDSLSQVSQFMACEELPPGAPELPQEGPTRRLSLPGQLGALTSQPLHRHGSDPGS
Outline: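 Automated whole-cell patch clamp of hERG current in mammalian cells at room temperature. Compounds applied at 0.1, 1, 3, 10 and 30 μM, 3 min per concentration, n≥2 cells each.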

CYP3A4 = CYP3A4 (Homo sapiens (Human), UniProt P08684); assay: Cytochrome P450 inhibition, fluorescence, CYP3A4; type: in vitro ADME; details: recombinant CYP3A4, fluorescence detection; read-out: CYP inhibition (CYP 3A4 screening, IC50 class)
CYP3A4, sequence (P08684 whole entry, canonical isoform): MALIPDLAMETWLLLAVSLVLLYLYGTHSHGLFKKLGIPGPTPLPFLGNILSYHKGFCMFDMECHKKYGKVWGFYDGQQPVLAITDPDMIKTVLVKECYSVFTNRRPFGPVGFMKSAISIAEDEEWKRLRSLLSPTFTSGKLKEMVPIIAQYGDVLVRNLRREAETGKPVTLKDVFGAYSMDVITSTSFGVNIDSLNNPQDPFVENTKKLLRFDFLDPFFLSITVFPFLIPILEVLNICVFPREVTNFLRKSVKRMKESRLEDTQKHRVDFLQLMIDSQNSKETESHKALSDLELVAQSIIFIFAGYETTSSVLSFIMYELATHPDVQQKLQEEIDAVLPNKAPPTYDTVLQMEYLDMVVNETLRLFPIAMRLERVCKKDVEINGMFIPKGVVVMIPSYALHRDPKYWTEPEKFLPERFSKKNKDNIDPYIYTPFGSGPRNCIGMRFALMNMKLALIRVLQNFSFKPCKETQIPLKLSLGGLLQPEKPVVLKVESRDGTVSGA
Protocol: The assays for cytochrome P450 inhibition facilitate the identification of drug candidates with lower potential for drug-drug interactions (weak enzymes inhibitors). In vitro experiments were conducted to determine whether a drug inhibits a specific CYP enzyme. The experiments comprised the incubation of the drug with probe substrates for the CYP enzymes, wherein the following recombinant cytochrome P450 isoforms were employed: CYP1A2, CYP2C8, CYP2C9, CYP2C19, CYP2D6 and CYP3A4, together with various probe substrates enabling fluorescence detection. The protocol uses a single substrate concentration near the apparent Km and multiple compound concentrations.
The assay was performed in 96-well microtiter plates. The row designations were A through H and the column designations were 1 through 12. […] Each compound (see Table 6 for tested compounds) was added to the wells in column 1 and serially diluted to the wells in column 8. Wells 9 and 10 were control wells which contained no test compound (therefore no inhibition-full signal is detected.) The wells in columns 11 and 12 were blanks, where STOP solution was added prior to the addition of the enzyme/substrate mix to the NADPH regenerating system (the only signal present in these wells is background noise.) The assay was conducted in a final volume of 0.2 ml per well.
The stock solutions of the tested compounds were prepared in DMSO at 10 mM concentration. […] After mixing the compounds with solution containing NADPH-cofactors, the mixed plate was preincubated in a 37° C. incubator for at least 10 minutes; next, the fluorescence of compounds using recommended excitation/emission filters was measured in order to eliminate false results originating from autofluorescence of the compounds. In the following step, the enzyme/substrate mix was added to columns 1 through 10 and the plates were incubated at 37° C. for specific times depending on the CYP tested (incubation times ranged from 30 to 45 minutes). After adding STOP SOLUTION to all wells and respective enzyme/substrate mix to the wells in columns 11 and 12, the plate was scanned with a fluorescent plate scanner. The excitation/emission filters used for the specific assays are described in the GenTest Screening Kit instruction manual.

SW-480 cells = assay: Growth inhibition, MTS assay, SW-480; type: cell-based, Human; details: 72 hours, MTS cell viability; read-out: SW-480 ED50

Pim-1, sequence (P11309 whole entry): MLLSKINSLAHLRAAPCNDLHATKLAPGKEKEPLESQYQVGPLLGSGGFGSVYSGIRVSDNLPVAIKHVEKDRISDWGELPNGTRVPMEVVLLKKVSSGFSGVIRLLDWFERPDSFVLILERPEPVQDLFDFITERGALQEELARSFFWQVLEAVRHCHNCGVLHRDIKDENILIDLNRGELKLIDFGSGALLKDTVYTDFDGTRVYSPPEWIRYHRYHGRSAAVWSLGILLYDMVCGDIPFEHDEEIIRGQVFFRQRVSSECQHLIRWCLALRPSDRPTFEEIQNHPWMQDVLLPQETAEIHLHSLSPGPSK

SMILES | inhibition at 1 µM (Pim-1) [%] | inhibition at 1 µM (Pim-2) [%] | inhibition at 1 µM (Pim-3) [%] | inhibition at 1 µM (FLT3wt) [%] | inhibition at 1 µM (CDK2/E) [%] | inhibition at 1 µM (DYRK1) [%] | IC50 (MV4-11 cells; Homo sapiens, MV4-11, 72 h) [nM] | IC50 (HEL92 cells; Homo sapiens, 72 h) [nM] | IC50 (HepG2 cells; Homo sapiens, HepG2, 72 h) [nM] | IC50 (MOLM16 cells) [nM] | IC50 (MOLM13 cells; Homo sapiens, MOLM-13) [nM] | Pim-1 % INH (1 μM) (Pim-1) [%] | Pim-2 % INH (1 μM) (Pim-2) [%] | Pim-3 % INH (1 μM) (Pim-3) [%] | Flt3wt % INH (1 μM) (FLT3wt) [%] | DYRK1A % INH (1 μM) (DYRK1) [%] | IC50 (MV4-11 cells; 72 hours) [nM] | IC50 (HEL92 cells; 72 hours) [nM] | IC50 (HepG2 cells; 72 hours) [nM] | CDK2/E % INH (1 μM) (CDK2/E) [%] | other results
CCn1c(N2CCC[C@H](N)C2)nc2c(C#N)c(Br)c(Br)cc21 [Example 1DQ] | > 95 | 53 | 86 | < 5 | < 5 | 38 | 900 | 7600 | 1400 | 100 | 2800 |  |  |  |  |  |  |  |  |  | IC50 (Jeko-1 cells; Homo sapiens, JeKo-1): 1600 nM; KG-1 ED50 (KG-1 cells): 500 nM
CC(C)n1c(N2CC[C@@H](N)C2)nc2c([N+](=O)[O-])c(Br)c(Br)cc21 [Example 1AY] |  |  |  |  |  |  |  |  |  |  |  | >95 | 89 | >95 | 60 | 87 | 500 | 1900 | 1500 |  | IC50 (MOLM13 cells): 900 nM
CC(C)n1c(N[C@H]2CCNC2)nc2c([N+](=O)[O-])c(Br)c(Br)cc21 [Example 1BD] |  |  |  |  |  |  |  |  |  |  |  | >95 | 65 | 88 | 28 | 53 | 700 | 5500 | 3300 | <5 | IC50 (Jeko-1 cells): 1600 nM; IC50 (MOLM13 cells): 2100 nM; IC50 (hERG potassium channel): 4340 nM; IC50 (CYP3A4): > 10000 nM
CC(C)n1c(NC2CCC(N)CC2)nc2c(C#N)c(Br)c(Br)cc21 (centres unmarked) [Example 1DY] | > 95 | 18 | 62 | < 5 | 7 | 20 | 2300 |  |  | 1100 | 6400 |  |  |  |  |  |  |  |  |  | IC50 (Jeko-1 cells; Homo sapiens, JeKo-1): 2800 nM; KG-1 ED50 (KG-1 cells): 1900 nM
CC(C)n1c(NC2CCNC2)nc2c(C#N)c(Br)c(Br)cc21 (centres unmarked) [Example 1BK] |  |  |  |  |  |  |  |  |  | 60 |  | >95 | 63 | 92 | 20 | 48 | 800 |  | 5200 | <5 | IC50 (CYP3A4): > 10000 nM
CCn1c(N[C@H]2CCCNC2)nc2c([N+](=O)[O-])c(Br)c(Br)cc21 [Example 1AA] |  |  |  |  |  |  |  |  |  |  |  | >95 | 53 | >95 | 11 | 40 | 1300 | 4600 | 2100 | <5 | IC50 (Jeko-1 cells): 1800 nM; IC50 (SW-480 cells): 5500 nM; IC50 (hERG potassium channel): 2270 nM; IC50 (CYP3A4): 1100 to 3300 nM
COCCn1c(N2CCNCC2)nc2c([N+](=O)[O-])c(Br)c(Br)cc21 [Example 1BB] |  |  |  |  |  |  |  |  |  |  |  | >95 | 12 | 65 | 33 | 61 | 700 | 5400 | 2000 | 29 | IC50 (MOLM13 cells): 3000 nM
CC(C)n1c(N2CCNCC2)nc2c(C#N)c(Br)c(Br)cc21 [Example 1BL] | > 95 | 33 | 81 | 54 | 7 | 75 | 400 | 2400 | 1400 |  | 1000 |  |  |  |  |  |  |  |  |  | 
CCn1c(N2CCC(N)CC2)nc2c(C#N)c(Br)c(Br)cc21 [Example 1DS] | > 95 | 54 |  | 8 | 47 | 23 | 800 | 5800 | 600 | 320 | 9900 |  |  |  |  |  |  |  |  |  | IC50 (Jeko-1 cells; Homo sapiens, JeKo-1): 1400 nM; KG-1 ED50 (KG-1 cells): 200 nM
